Test results: patent publication US11596639B2, “Substituted indole Mcl-1 inhibitors” (Vanderbilt University, priority 2016, dated 2023)
Like-named read-outs stand apart in the source and are kept apart here.

Assays:
Mcl-1 = Mcl-1 (Homo sapiens (Human), UniProt Q07820); experiment: Fluorescence polarization anisotropy (FPA) competition assay, FITC-Bak or FITC-Bim BH3 peptide; assay type: binding; conditions: read-out: Ki for Inhibition of Mcl-1 by FPA assay
[1] = test system: H929 human cancer cell lines; experiment: Cellular viability / proliferation (Cell TiterGlo, 72 h); assay type: cell-based
Outline: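 Compounds were added as 2-fold serial dilutions from 50 μM (final DMSO <1%) to H929 cells seeded 1,000 per well in 10% FBS medium one day earlier.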

[2] = Homo sapiens, NCI-H929, 72 h, read-out: GI50 on cellular proliferation of H929 human cancer cell lines, H929 cells, 72 h, Cell TiterGlo, 10% FBS
[3] = H929 cells, 72 h, Cell TiterGlo, 10% FBS, read-out: GI50 on cellular proliferation of H929 human cancer cell lines

Sequence of Mcl-1 (Q07820 172-327): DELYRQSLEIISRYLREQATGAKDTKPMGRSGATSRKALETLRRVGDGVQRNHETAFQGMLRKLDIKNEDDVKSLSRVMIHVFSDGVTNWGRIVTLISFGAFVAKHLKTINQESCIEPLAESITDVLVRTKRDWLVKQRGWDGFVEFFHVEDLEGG

SMILES	Ki (Mcl-1)	GI50 [1, 2]	GI50 [1, 3]
CC[C@@H]1Cn2c(c(CCCOc3cc(C)c(Cl)c(C)c3)c3ccc(Cl)c(-c4c(C)nn(C)c4C)c32)C(=O)N1c1ccc(C(=O)O)cc1 [Example 23, (R)-4-(7-chloro-10-(3-(4-chloro-3,5-dimethylphenoxy)propyl)-3-ethyl-1-oxo-6-(1,3,5-trimethyl-1H-pyrazol-4-yl)-3,4-dihydropyrazino[1,2-a]indol-2(1H)-yl)benzoic acid]	< 1 nM	4900 nM	–
Cc1cc(OCCCc2c3n(c4c(-c5c(C)nn(C)c5C)c(Cl)ccc24)[C@H](C)CN(c2cn(C)c4ccc(C(=O)N(C)C)cc24)C3=O)cc(C)c1Cl [Example 289, 3-[(4R)-7-chloro-10-[3-(4-chloro-3,5-dimethyl-phenoxy)propyl]-4-methyl-1-oxo-6-(1,3,5-trimethylpyrazol-4-yl)-3,4-dihydropyrazino[1,2-a]indol-2-yl]-N,N,1-trimethyl-indole-5-carboxamide]	15 nM	5200 nM	–
Cc1cc(OCCCc2c3n(c4c(-c5c(C)nn(C)c5C)c(Cl)ccc24)CCCN(c2cc(C(=O)O)c4nnn(C)c4c2)C3=O)cc(C)c1Cl [Example 4, 6-[8-Chloro-11-[3-(4-chloro-3,5-dimethyl-phenoxy)propyl]-1-oxo-7-(1,3,5-trimethylpyrazol-4-yl)-4,5-dihydro-3H-[1,4]diazepino[1,2-a]indol-2-yl]-1-methyl-benzotriazole-4-carboxylic acid]	3.3 nM	8700 nM	–
Cc1cc(OCCCc2c3n(c4c(-c5c(C)nc(COCc6ccccc6)nc5C)c(Cl)ccc24)CCCN(c2cn(C)c4ccc(C(=O)O)cc24)C3=O)cc(C)c1Cl [Example 294, 3-[7-[2-(benzyloxymethyl)-4,6-dimethyl-pyrimidin-5-yl]-8-chloro-11-[3-(4-chloro-3,5-dimethyl-phenoxy)propyl]-1-oxo-4,5-dihydro-3H-[1,4]diazepino[1,2-a]indol-2-yl]-1-methyl-indole-5-carboxylic acid]	< 1 nM	2000 nM	–
Cc1cc(OCCCc2c3n(c4c(-c5c(C)n[nH]c5C)c(Cl)ccc24)CCCN(c2cc(C(=O)O)c4cnn(C)c4c2)C3=O)cc(C)c1Cl [Example 95, 6-(8-Chloro-1-(3-(4-chloro-3,5-dimethylphenoxy)propyl)-7-(3,5-dimethyl-1H-pyrazol-4-yl)-1-oxo-4,5-dihydro-1H-[1,4]diazepino[1,2-a]indol-2(3H)-yl)-1-methyl-1H-indazole-4-carboxylic acid]	< 1 nM	–	10000 nM
Cc1cc(OCCCc2c3n(c4c(-c5c(C)nn(C)c5C)c(Cl)ccc24)[C@H](C)CN(c2cccc4c(C(=O)O)c(C)n(C)c24)C3=O)cc(C)c1Cl [Example 417, (R)-7-(7-Chloro-10-(3-(4-chloro-3,5-dimethylphenoxy)propyl)-4-methyl-1-oxo-6-(1,3,5-trimethyl-1H-pyrazol-4-yl)-3,4-dihydropyrazino[1,2-a]indol-2(1H)-yl)-1,2-dimethyl-1H-indole-3-carboxylic acid]	1.3 nM	340 nM	–
Cc1cnc(-c2ccc3c(c2)c(N2C[C@@H](C)n4c(c(CCCOc5cc(C)c(Cl)c(C)c5)c5ccc(Cl)c(-c6c(C)nn(C)c6C)c54)C2=O)cn3C)nc1 [Example 450, (R)-7-Chloro-10-(3-(4-chloro-3,5-dimethylphenoxy)propyl)-4-methyl-2-(1-methyl-5-(5-methylpyrimidin-2-yl)-1H-indol-3-yl)-6-(1,3,5-trimethyl-1H-pyrazol-4-yl)-3,4-dihydropyrazino[1,2-a]indol-1(2H)-one]	2.2 nM	1100 nM	–
Cc1cc(OCCCc2c3n(c4c(-c5c(C)nn(C)c5C)c(Cl)ccc24)[C@H](C)CN(c2cc(OCCN4CCN(C)CC4)cc4cc(C(=O)O)n(C)c24)C3=O)cc(C)c1Cl [Example 453, (R)-7-(7-Chloro-10-(3-(4-chloro-3,5-dimethylphenoxy)propyl)-4-methyl-1-oxo-6-(1,3,5-trimethyl-1H-pyrazol-4-yl)-3,4-dihydropyrazino[1,2-a]indol-2(1H)-yl)-1-methyl-5-(2-(4-methylpiperazin-1-yl)ethoxy)-1H-indole-2-carboxylic acid]	1.7 nM	330 nM	–
CCn1nc(C(=O)O)c2cccc(N3C[C@@H](C)n4c(c(CCCOc5cc(C)c(Cl)c(C)c5)c5ccc(Cl)c(-c6c(C)nn(C)c6C)c54)C3=O)c21 [Example 118, (R)-7-(7-chloro-10-(3-(4-chloro-3,5-dimethylphenoxy)propyl)-4-methyl-1-oxo-6-(1,3,5-trimethyl-1H-pyrazol-4-yl)-3,4-dihydropyrazino[1,2-a]indol-2(1H)-yl)-1-ethyl-1H-indazole-3-carboxylic acid]	< 1 nM	820 nM	–
Cc1cc(OCCCc2c3n(c4c(-c5c(C)nn(C)c5C)c(Cl)ccc24)[C@H](C)CN(c2ccc(OCc4ccccc4)c4c2cc(C(=O)O)n4C)C3=O)cc(C)c1Cl [Example 299, (P, R)-7-(benzyloxy)-4-(7-chloro-10-(3-(4-chloro-3,5-dimethylphenoxy)propyl)-4-methyl-1-oxo-6-(1,3,5-trimethyl-1H-pyrazol-4-yl)-3,4-dihydropyrazino[1,2-a]indol-2(1H)-yl)-1-methyl-1H-indole-2-carboxylic acid]	2 nM	–	2300 nM
Cc1cc(OCCCc2c3n(c4c(-c5c(C)nn(C)c5C)c(Cl)ccc24)[C@H](C)CN(c2cn(C)c4ccc(-c5ccccn5)cc24)C3=O)cc(C)c1Cl [Example 389, (R)-7-Chloro-10-(3-(4-chloro-3,5-dimethylphenoxy)propyl)-4-methyl-2-(1-methyl-5-(pyridin-2-yl)-1H-indol-3-yl)-6-(1,3,5-trimethyl-1H-pyrazol-4-yl)-3,4-dihydropyrazino[1,2-a]indol-1(2H)-one]	< 1 nM	1500 nM	–
Cc1cc(N2C[C@@H](C)n3c(c(CCCOc4cc(C)c(Cl)c(C)c4)c4ccc(Cl)c(-c5c(C)n[nH]c5C)c43)C2=O)c2c(c1)cc(C(=O)O)n2C [Example 400, (R)-7-(7-chloro-10-(3-(4-chloro-3,5-dimethylphenoxy)propyl)-6-(3,5-dimethyl-1H-pyrazol-4-yl)-4-methyl-1-oxo-3,4-dihydropyrazino[1,2-a]indol-2(1H)-yl)-1,5-dimethyl-1H-indole-2-carboxylic acid]	1.4 nM	430 nM	–
Cc1cc(OCCCc2c3n(c4c(-c5c(C)nn(C)c5C)c(Cl)ccc24)[C@H](C)CN(c2cn(C)c4ccc(S(=O)(=O)N5CCNCC5)cc24)C3=O)cc(C)c1Cl [Example 265, (R)-7-chloro-10-(3-(4-chloro-3,5-dimethylphenoxy)propyl)-4-methyl-2-(1-methyl-5-(piperazin-1-ylsulfonyl)-1H-indol-3-yl)-6-(1,3,5-trimethyl-1H-pyrazol-4-yl)-3,4-dihydropyrazino[1,2-a]indol-1(2H)-one]	8.2 nM	1500 nM	–
Cc1cc(N2C[C@@H](C)n3c(c(CCCOc4cc(C)c(Cl)c(C)c4)c4ccc(Cl)c(-c5c(C)ncnc5C)c43)C2=O)c2c(c1)cc(C(=O)O)n2Cc1ccccn1 [Example 296, 7-[(4R)-7-chloro-10-[3-(4-chloro-3,5-dimethyl-phenoxy)propyl]-6-(4,6-dimethylpyrimidin-5-yl)-4-methyl-1-oxo-3,4-dihydropyrazino[1,2-a]indol-2-yl]-5-methyl-1-(2-pyridylmethyl)indole-2-carboxylic acid]	< 1 nM	240 nM	–
Cc1cc(N2C[C@@H](C)n3c(c(CCCOc4cc(C)c(Cl)c(C)c4)c4ccc(Cl)c(-c5c(C)nn(CC6CCOCC6)c5C)c43)C2=O)c2c(c1)cc(C(=O)O)n2C [Example 452, (R)-7-(7-Chloro-10-(3-(4-chloro-3,5-dimethylphenoxy)propyl)-6-(3,5-dimethyl-1-((tetrahydro-2H-pyran-4-yl)methyl)-1H-pyrazol-4-yl) 4-methyl-1-oxo-3,4-dihydropyrazino[1,2-a]indol-2(1H)-yl)-1,5-dimethyl-1H-indole-2-carboxylic acid]	2.2 nM	380 nM	–
Cc1cc(OCCCc2c3n(c4c(-c5c(C)nn(C)c5C)c(Cl)ccc24)[C@H](C)CN(c2cc(OCCN4CCCC4)cc4cc(C(=O)O)n(C)c24)C3=O)cc(C)c1Cl [Example 460, (R)-7-(7-Chloro-10-(3-(4-chloro-3,5-dimethylphenoxy)propyl)-4-methyl-1-oxo-6-(1,3,5-trimethyl-1H-pyrazol-4-yl)-3,4-dihydropyrazino[1,2-a]indol-2(1H)-yl)-1-methyl-5-(2-(pyrrolidin-1-yl)ethoxy)-1H-indole-2-carboxylic acid]	1.7 nM	420 nM	–
Cc1cc(OCCCc2c3n(c4c(-c5c(C)ncnc5C)c(Cl)ccc24)CCCN(c2cccc4cc(C(=O)O)n(C)c24)C3=O)cc(C)c1Cl [Example 219, 7-[8-Chloro-11-[3-(4-chloro-3,5-dimethyl-phenoxy)propyl]-7-(4,6-dimethylpyrimidin-5-yl)-1-oxo-4,5-dihydro-3H-[1,4]diazepino[1,2-a]indol-2-yl]-1-methyl-indole-2-carboxylic acid]	2.2 nM	1200 nM	–
Cc1cc(OCCCc2c3n(c4c(-c5c(C)nn(CCN6CCCC6)c5C)c(Cl)ccc24)[C@H](C)CN(c2cn(C)c4ccc(C(N)=O)cc24)C3=O)cc(C)c1Cl [Example 392, (R)-3-(7-chloro-10-(3-(4-chloro-3,5-dimethylphenoxy)propyl)-6-(3,5-dimethyl-1-(2-(pyrrolidin-1-yl)ethyl)-1H-pyrazol-4-yl)-4-methyl-1-oxo-3,4-dihydropyrazino[1,2-a]indol-2(1H)-yl)-1-methyl-1H-indole-5-carboxamide]	23 nM	950 nM	–
